Assay results from ChEMBL document CHEMBL1201862, “PubChem BioAssay data set” (2004).
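Grown in 96-well plates, cells were treated for 48 hours with each compound at five concentrations. Insufficient inhibition: endpoint recorded as highest concentration tested. Abbreviation: GI50, concentration required for 50% inhibition of growth.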 Active and inactive are the calls of the source. No stated cut-off is given here; in the data, active = GI50 up to about 1.1 µM and inactive = higher.

Assays:
Experiment in all cases: NCI tumour cell line growth inhibition, 48 h
[1] = test system: CAKI-1
[2] = test system: UACC-62
[3] = test system: A549
[4] = test system: NCI-H23
[5] = test system: SK-MEL-5
[6] = test system: KM12
[7] = test system: SNB-19
[8] = test system: BT-549
[9] = test system: IGROV-1
[10] = test system: HT-29
[11] = test system: RXF 393
[12] = test system: 786-0
[13] = test system: HOP-62
[14] = test system: NCI-H522
[15] = test system: SK-MEL-2
[16] = test system: UACC-257
[17] = test system: OVCAR-3
[18] = test system: HOP-92
[19] = test system: SF-295

Compound | GI50 [1] | GI50 [2] | GI50 [3] | GI50 [4] | GI50 [5] | GI50 [6] | GI50 [7] | GI50 [8] | GI50 [9] | GI50 [10] | GI50 [11] | GI50 [12] | GI50 [13] | GI50 [14] | GI50 [15] | GI50 [16] | GI50 [17] | GI50 [18] | GI50 [19]
NCC(O)CN.Oc1c(Cl)c(Cl)c(Cl)c(Cl)c1Cl | 31.1 µM (inactive) | 19 µM (inactive) | 18.7 µM (inactive) | 16.9 µM (inactive) | 14.4 µM (inactive) | 20.2 µM (inactive) | 21 µM (inactive) | 24 µM (inactive) | 13.4 µM (inactive) | 17.8 µM (inactive) | 27 µM (inactive) | 23.6 µM (inactive) | 16.2 µM (inactive) | 24.6 µM (inactive) | 22.5 µM (inactive) | 21.2 µM (inactive) | 13.5 µM (inactive) | 20.7 µM (inactive) | 17.6 µM (inactive)
COc1ccc2c(=O)cc(-c3ccncc3)oc2c1OC | 36.1 µM (inactive) | 14 µM (inactive) | 33.1 µM (inactive) | 24.6 µM (inactive) | 17.5 µM (inactive) | 26.4 µM (inactive) | 31.4 µM (inactive) | 26 µM (inactive) | 20.8 µM (inactive) | 28.6 µM (inactive) | 24.9 µM (inactive) | 27.9 µM (inactive) | 30.8 µM (inactive) | 24.6 µM (inactive) | 25.3 µM (inactive) | 33 µM (inactive) | 17.5 µM (inactive) | 17.7 µM (inactive) | 20.9 µM (inactive)
Cc1cccc(C(=O)O)c1CC1NCCC2c3ccccc3NC12 (stereo unspecified) | > 100 µM (inactive) | > 100 µM (inactive) | > 100 µM (inactive) | > 100 µM (inactive) | > 100 µM (inactive) | > 100 µM (inactive) | > 100 µM (inactive) | > 100 µM (inactive) | > 100 µM (inactive) | > 100 µM (inactive) | > 100 µM (inactive) | > 100 µM (inactive) | > 100 µM (inactive) | > 100 µM (inactive) | > 100 µM (inactive) | > 100 µM (inactive) | 20.7 µM (inactive) | > 100 µM (inactive) | > 100 µM (inactive)
CCOC(=O)C1C2CCC1CC(=NNc1ccc([N+](=O)[O-])cc1[N+](=O)[O-])C2 (stereo unspecified) | 14.8 µM (inactive) | > 50 µM (inactive) | 37.6 µM (inactive) | > 50 µM (inactive) | 46.2 µM (inactive) | 48.9 µM (inactive) | > 50 µM (inactive) | > 50 µM (inactive) | > 50 µM (inactive) | 47.2 µM (inactive) | > 50 µM (inactive) | > 50 µM (inactive) | > 50 µM (inactive) | > 50 µM (inactive) | > 50 µM (inactive) | > 50 µM (inactive) | > 50 µM (inactive) | 15.8 µM (inactive) | 8.99 µM (inactive)
CCOc1cc(NC(C)=O)ccc1C(=O)NN1C(=O)C(Cl)C1c1ccc(O)c(OC)c1 (stereo unspecified) | 16.5 µM (inactive) | 12.3 µM (inactive) | 16.7 µM (inactive) | 11.7 µM (inactive) | 10.4 µM (inactive) | 17.6 µM (inactive) | 15.8 µM (inactive) | 8.83 µM (inactive) | 12.8 µM (inactive) | 16.3 µM (inactive) | 12 µM (inactive) | 13.1 µM (inactive) | 16.1 µM (inactive) | 6.35 µM (inactive) | 14.8 µM (inactive) | 11.8 µM (inactive) | 20.2 µM (inactive) | 16.4 µM (inactive) | 21.3 µM (inactive)
Cc1cc2[n-][n+]3ncc(-c4ccccc4)n3c2cc1[N+](=O)[O-] | > 100 µM (inactive) | > 100 µM (inactive) | > 100 µM (inactive) | – | > 100 µM (inactive) | > 100 µM (inactive) | > 100 µM (inactive) | > 100 µM (inactive) | > 100 µM (inactive) | – | > 100 µM (inactive) | > 100 µM (inactive) | > 100 µM (inactive) | > 100 µM (inactive) | > 100 µM (inactive) | > 100 µM (inactive) | > 100 µM (inactive) | > 100 µM (inactive) | > 100 µM (inactive)
O=C1NC(N2CCCC(CO)C2)=N/C1=C\c1ccc(O)cc1 (stereo unspecified) | > 100 µM (inactive) | > 100 µM (inactive) | > 100 µM (inactive) | > 100 µM (inactive) | > 100 µM (inactive) | > 100 µM (inactive) | > 100 µM (inactive) | > 100 µM (inactive) | > 100 µM (inactive) | > 100 µM (inactive) | > 100 µM (inactive) | > 100 µM (inactive) | > 100 µM (inactive) | > 100 µM (inactive) | > 100 µM (inactive) | > 100 µM (inactive) | > 100 µM (inactive) | > 100 µM (inactive) | > 100 µM (inactive)
COc1ccc(OC)c(NS(=O)(=O)c2ccc3nc(C)n(NS(=O)(=O)c4cc(OC)ccc4OC)c(=O)c3c2)c1 | > 100 µM (inactive) | > 100 µM (inactive) | – | 69.5 µM (inactive) | 26.4 µM (inactive) | 62.5 µM (inactive) | > 100 µM (inactive) | 70.1 µM (inactive) | > 100 µM (inactive) | 74.8 µM (inactive) | > 100 µM (inactive) | > 100 µM (inactive) | > 100 µM (inactive) | > 100 µM (inactive) | > 100 µM (inactive) | > 100 µM (inactive) | > 100 µM (inactive) | > 100 µM (inactive) | > 100 µM (inactive)
CC(=O)N1C2=CCCC2(C)c2ccccc21 (stereo unspecified) | > 100 µM (inactive) | 80.4 µM (inactive) | 37.7 µM (inactive) | 86.9 µM (inactive) | 41.1 µM (inactive) | 64.9 µM (inactive) | > 100 µM (inactive) | > 100 µM (inactive) | 63.5 µM (inactive) | 63.5 µM (inactive) | > 100 µM (inactive) | > 100 µM (inactive) | > 100 µM (inactive) | 26.8 µM (inactive) | > 100 µM (inactive) | 68.7 µM (inactive) | 37.5 µM (inactive) | 26.9 µM (inactive) | > 100 µM (inactive)
Cn1nc(-c2ccccc2)nc1[N+](=O)[O-] | > 10 µM (inactive) | > 10 µM (inactive) | > 10 µM (inactive) | > 10 µM (inactive) | > 10 µM (inactive) | > 10 µM (inactive) | > 10 µM (inactive) | > 10 µM (inactive) | > 10 µM (inactive) | > 10 µM (inactive) | > 10 µM (inactive) | > 10 µM (inactive) | > 10 µM (inactive) | > 10 µM (inactive) | > 10 µM (inactive) | > 10 µM (inactive) | > 10 µM (inactive) | > 10 µM (inactive) | > 10 µM (inactive)
N#Cc1c(-c2ccccc2)c2c([nH]c1=O)-c1cc([N+](=O)[O-])ccc1CCC2 | 41.3 µM (inactive) | 17.5 µM (inactive) | 30.3 µM (inactive) | 25.2 µM (inactive) | 27.9 µM (inactive) | 32.9 µM (inactive) | 36.7 µM (inactive) | 17.4 µM (inactive) | 29.9 µM (inactive) | 34.8 µM (inactive) | 12.1 µM (inactive) | 43.2 µM (inactive) | 22.7 µM (inactive) | 27.5 µM (inactive) | 25.2 µM (inactive) | 31.1 µM (inactive) | 21.2 µM (inactive) | 16.4 µM (inactive) | 18.9 µM (inactive)
O=C(CCCCCCCCC(=O)N1C(=O)CC(=O)N(c2ccc(Cl)cc2)C1=S)N1C(=O)CC(=O)N(c2ccc(Cl)cc2)C1=S | > 100 µM (inactive) | 15.5 µM (inactive) | 34.2 µM (inactive) | 58.5 µM (inactive) | 29.9 µM (inactive) | 27.4 µM (inactive) | 74.1 µM (inactive) | 67 µM (inactive) | – | 73.5 µM (inactive) | > 100 µM (inactive) | 67.9 µM (inactive) | 80.9 µM (inactive) | 29 µM (inactive) | 49.1 µM (inactive) | > 100 µM (inactive) | 51.3 µM (inactive) | > 100 µM (inactive) | 33 µM (inactive)
CCCN1C(=O)CCC2=C1CCc1c2ccc(Cl)c1Cl | 31.6 µM (inactive) | 0.492 µM (active) | 27.2 µM (inactive) | 29.4 µM (inactive) | 15.4 µM (inactive) | 38 µM (inactive) | 26.8 µM (inactive) | 64.4 µM (inactive) | 30.8 µM (inactive) | 34.8 µM (inactive) | 17.9 µM (inactive) | 31.9 µM (inactive) | 38.5 µM (inactive) | 23.3 µM (inactive) | 13.5 µM (inactive) | 39.9 µM (inactive) | 23 µM (inactive) | 21.8 µM (inactive) | 27 µM (inactive)
CC(C)(C)OC(=O)NCC(c1c[nH]c2ccc(Br)cc12)c1c[nH]c2ccc(Br)cc12 | 11 µM (inactive) | 11.1 µM (inactive) | 5.18 µM (inactive) | 4.33 µM (inactive) | 6.38 µM (inactive) | 4.16 µM (inactive) | 11.2 µM (inactive) | 12.4 µM (inactive) | 4.07 µM (inactive) | 3.34 µM (inactive) | 11.6 µM (inactive) | 3.85 µM (inactive) | 12.7 µM (inactive) | 10.7 µM (inactive) | 8.04 µM (inactive) | 13 µM (inactive) | 4.54 µM (inactive) | 3.76 µM (inactive) | 9.89 µM (inactive)
COc1cc(OC)c(-c2cc(=O)c3c(OC)c(OC)c(OC)c(OC)c3o2)cc1OC | 36.1 µM (inactive) | 29.6 µM (inactive) | > 100 µM (inactive) | 33 µM (inactive) | 46.8 µM (inactive) | 74.1 µM (inactive) | > 87.7 µM (inactive) | > 100 µM (inactive) | > 100 µM (inactive) | > 100 µM (inactive) | 12.7 µM (inactive) | > 69.3 µM (inactive) | 36.1 µM (inactive) | 17.7 µM (inactive) | > 100 µM (inactive) | > 100 µM (inactive) | 30.2 µM (inactive) | 11.6 µM (inactive) | 28.1 µM (inactive)
